Experimental data reported in patent publication US11542508B2, “Isolated polynucleotides and polypeptides and methods of using same for expressing an expression product of interest” (priority 2016, dated 2023).

How the values were obtained:
[1] = tested on: phi3T; assay: Sequencing-based assay for lysogeny; format: cell-based, B. subtilis 168; conditions: 60 minutes post infection, phi3T MOI=2, peptide 1 μM; 18% (±3.3%) without peptide
Protocol: An overnight culture of bacteria was diluted 1/100 until reaching O.D 600 nm=0.1. Medium was replaced as described above [LB supplemented with 0.1 mM MnCl2 and 5 mM MgCl2 with or without SAIRGA (SEQ ID NO: 269)], and incubated for 1 hour at room temperature. Bacteria were infected by phi3T at multiplicity of infection (MOI)=2. Cell pellets were collected at 5, 10, 20 and 60 minutes post infection in the presence or absence of SAIRGA (SEQ ID NO: 269) peptide at 1 μM final concentration in the medium. DNA was extracted using QIAGEN DNeasy blood and tissue kit (CAT #69504) and subjected to Illumina-based whole genome sequencing on NextSeq500. The relative abundance of lysogens in each sample was estimated using the number of reads mapped to the uninterrupted integration site versus reads mapped to the integration junction spanning the prophage DNA on one end and the bacterial DNA on the other end.

[2] = tested on: aimX; assay: RNA-seq / differential expression analysis during phi3T infection; format: cell-based; conditions: medium supplemented by 1 μM peptide
Protocol: To determine the difference in gene expression with and without the peptide, bacteria were incubated for 1 hour in LB medium supplemented with 0.1 mM MnCl2 and 5 mM MgCl2 in the presence or absence of 1 μM synthesized SAIRGA (SEQ ID NO: 269) peptide. Following, the bacteria were infected with phi3T (MOI=0.1); and cell pellets were collected at 0, 5, 10 and 20 minutes post infection.
RNA extraction and RNA-seq was performed as described in Dar et al.^33. Briefly, pellets were lysed using the Fastprep homogenizer (MP Biomedicals, Santa Ana, Calif.) and RNA was extracted with the FastRNA PRO blue kit (MP Biomedicals, 116025050) according to manufacturer's instructions. […]
RNA-seq libraries were sequenced using the Illumina NextSeq500 platform. Sequenced reads were demultiplexed and adapters were trimmed using fastx_clipper with default parameters. Reads were mapped to the reference genomes (gene annotation and sequences were downloaded from Genbank: NC_000964 for Bacillus subtilis str. 168, AP012496 for Bacillus subtilis BEST7003) using NovoAlign (Novocraft) V3.02.02 with default parameters. […]
Reads per gene were calculated for each biological replicate at 20 minutes post infection with and without the synthetic peptide and normalized relative to the total mapped reads hitting the phage genome in each replicate. […]

[3] = tested on: Bacillus subtilis BEST7003 containing Construct #1; assay: GFP reporter expression, Construct #1; format: cell-based; conditions: Construct #1, peptide 62.5 nM-1000 nM in LB
Protocol: Starter growths of wild type (WT) Bacillus subtilis BEST7003 strain and of Bacillus subtilis BEST7003 strains containing Construct #1 or Construct #2 were cultured in 3 ml Luria-Bertani (LB) broth until the growth curve indicated stationary phase. Following, the bacterial cells were diluted in a ratio of 1/100 in LB broth or LB broth supplemented with a SAIRGA (SEQ ID NO: 269) peptide at a concentration range of 62.5 nM-1000 nM. Optical density (O.D. at 600 nm) and GFP fluorescence levels (488 nm excitation/518 nm emission) were measured over time in a 96 wells plate using a TECAN Infinite 200 plate reader.

[4] = biological target: AimR (Bacillus phage phi3T, UniProt P0DOE3); assay: Analytical gel filtration of purified AimR (oligomeric state); parameters: made in house; host or cells: E. coli BL21(DE3), pET28a; conditions: AimR:SAIRGA 1:2, AimR:GMPRGA 1:1 molar ratio
Chain of AimR (P0DOE3 whole entry): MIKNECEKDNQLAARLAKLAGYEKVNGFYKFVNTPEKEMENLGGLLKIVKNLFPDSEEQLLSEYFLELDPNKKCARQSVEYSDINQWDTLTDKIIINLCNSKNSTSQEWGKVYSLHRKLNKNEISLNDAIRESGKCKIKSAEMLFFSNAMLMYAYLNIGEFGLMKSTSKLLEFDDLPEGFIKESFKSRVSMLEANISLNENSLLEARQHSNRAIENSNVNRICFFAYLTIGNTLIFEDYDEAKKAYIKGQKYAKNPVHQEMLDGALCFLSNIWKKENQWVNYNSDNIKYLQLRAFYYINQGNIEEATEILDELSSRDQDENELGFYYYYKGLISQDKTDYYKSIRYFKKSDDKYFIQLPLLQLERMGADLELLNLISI
Protocol: Following, AimR was expressed in E. coli BL21(DE3) cells with a C-terminal 6× His-tag. Expression was performed at 15° C. for about ˜18 hours using 200 μM IPTG (Isopropyl β-D-1-thiogalactopyranoside) as an inducer. The cells pellet was resuspended in lysis buffer [50 mM Tris pH 8, 0.3M NaCl, 20 mM Imidazole, 2 mM DTT, 0.2 mg/ml Lysozyme, 1 μg/ml DNAse, protease inhibitor cocktail (Calbiochem)], disrupted by a cell disrupter at 4° C. and clarified at 15,000 g for 30 minutes. The clarified lysate was loaded onto a HisTrap_FF_5 ml column (GE Healthcare) and washed with buffer containing 50 mM Tris pH 8, 0.3 M NaCl, 20 mM imidazole and 2 mM DTT. AimR was eluted from the column in one step with the same buffer containing 0.5 M imidazole. Fractions containing AimR were pooled and injected to a size exclusion column (HiLoad_16/60_Superdex_200_prepgrade,GE_Healthcare) equilibrated with 20 mM Tris pH 8, 0.3 M NaCl, 2 mM TCEP. Fractions containing pure AimR were pooled and flash frozen in aliquots using liquid nitrogen.
Pure AimR was injected to an analytical gel filtration column (Superdex_200_Increase_10/30 GL, GE Healthcare) equilibrated with buffer containing 20 mM Tris pH 8, 0.3 M NaCl, 2 mM TCEP. […]

`CC[C@H](C)[C@H](NC(=O)[C@H](C)NC(=O)[C@@H](N)CO)C(=O)N[C@@H](CCCNC(=N)N)C(=O)NCC(=O)N[C@@H](C)C(=O)O` [SAIRGA, Ser-Ala-Ile-Arg-Gly-Ala] was tested, and the bacteria lysogenized [1] was 48% (±7.9%), the “reduction of aimX expression” value [2] was “more than 20 fold” and the “GFP fluorescence in presence of peptide” value [3] was “fluorescence gradually repressed in a manner proportional to the concentration of the peptide”. The “AimR oligomeric state (migration in gel filtration column)” value [4] was “strictly migrated as a monomer”.
